Results published in PubChem BioAssay AID248 (DTP/NCI, 2004).
Several values for one entry are separate records, joined by “and”; a condition that tells them apart may be missing. Equal values may be shown once. Inconclusive results and toxic doses are left out. No stated cut-off is given here; in the data, active means T/C of 150% or more; inactive means T/C below 125%.

Tested on: L1210 leukemia ip in BDF1 mice, survival T/C
Assay: NCI In Vivo Anticancer Drug Screen. Data for tumor model L1210 Leukemia (intraperitoneal) in B6D2F1 (BDF1) mice
Details: endpoint: mean survival time, higher = longer survival
Outline: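 Value reflects the ratio of survival in compound-treated mice to survival in vehicle-treated controls, with both groups carrying the same transplanted tumor.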

[1] = dose: 100.0 mg/kg/injection, schedule: Q01DX001 (ip), vehicle: saline
[2] = dose: 200.0 mg/kg/injection, schedule: Q01DX001 (ip), vehicle: saline
[3] = dose: 400.0 mg/kg/injection, schedule: Q01DX001 (ip), vehicle: saline
[4] = dose: 100.0 mg/kg/injection, schedule: Q01DX001 (ip), vehicle: Klucel (hydroxypropylcellulose) (HPC)
[5] = dose: 200.0 mg/kg/injection, schedule: Q01DX001 (ip), vehicle: Klucel (hydroxypropylcellulose) (HPC)
[6] = dose: 400.0 mg/kg/injection, schedule: Q01DX001 (ip), vehicle: Klucel (hydroxypropylcellulose) (HPC)
[7] = dose: 100.0 mg/kg/injection, schedule: Q04DX002 (ip), vehicle: Klucel (hydroxypropylcellulose) (HPC)
[8] = dose: 200.0 mg/kg/injection, schedule: Q04DX002 (ip), vehicle: Klucel (hydroxypropylcellulose) (HPC)
[9] = dose: 50.0 mg/kg/injection, schedule: Q01DX001 (ip), vehicle: saline
[10] = dose: 400.0 mg/kg/injection, schedule: Q04DX002 (ip), vehicle: Klucel (hydroxypropylcellulose) (HPC)
[11] = dose: 100.0 mg/kg/injection, schedule: Q01DX009 (ip), vehicle: Klucel (hydroxypropylcellulose) (HPC)
[12] = dose: 200.0 mg/kg/injection, schedule: Q01DX009 (ip), vehicle: Klucel (hydroxypropylcellulose) (HPC)
[13] = dose: 100.0 mg/kg/injection, schedule: Q04DX003 (ip), vehicle: Klucel (hydroxypropylcellulose) (HPC)
[14] = dose: 200.0 mg/kg/injection, schedule: Q04DX003 (ip), vehicle: Klucel (hydroxypropylcellulose) (HPC)

Measured: T/C

O=C1OC(O)C(Cl)=C1Cl (stereo not given)
inactive: dose: 6.25 mg/kg/injection, schedule: Q04DX002 (ip), vehicle: saline with Tween-80 107 % of control | dose: 12.5 mg/kg/injection, schedule: Q04DX002 (ip), vehicle: saline with Tween-80 103 % of control | dose: 25.0 mg/kg/injection, schedule: Q04DX002 (ip), vehicle: saline with Tween-80 114 % of control

FC(F)(F)c1cccc(-c2nc3nc(Cl)c(Cl)nc3[nH]2)c1
inactive: dose: 12.5 mg/kg/injection, schedule: Q01DX009 (ip), vehicle: saline with Tween-80 93 % of control | dose: 25.0 mg/kg/injection, schedule: Q01DX009 (ip), vehicle: saline with Tween-80 98 % of control | dose: 50.0 mg/kg/injection, schedule: Q01DX009 (ip), vehicle: saline with Tween-80 90 % of control

COC(=O)C1C(C(=O)OC)C2C3OC(=O)C(C2C(=O)OC)C1C3C (stereo not given)
inactive: [1] 103 % of control | dose: 100.0 mg/kg/injection, schedule: Q01DX009 (ip), vehicle: saline 100 % of control | [2] 98 % of control | dose: 200.0 mg/kg/injection, schedule: Q01DX009 (ip), vehicle: saline 103 % of control | [3] 101 % of control | dose: 400.0 mg/kg/injection, schedule: Q01DX009 (ip), vehicle: saline 87 % of control

O=C(c1ccccc1)N(O)c1ccccc1
inactive: dose: 75.0 mg/kg/injection, schedule: Q01DX001 (ip), vehicle: saline 93 % of control | dose: 75.0 mg/kg/injection, schedule: Q01DX009 (ip), vehicle: saline 91 % of control | dose: 150.0 mg/kg/injection, schedule: Q01DX001 (ip), vehicle: saline 104 % of control | dose: 150.0 mg/kg/injection, schedule: Q01DX009 (ip), vehicle: saline 98 % of control | dose: 300.0 mg/kg/injection, schedule: Q01DX001 (ip), vehicle: saline 95 % of control | dose: 300.0 mg/kg/injection, schedule: Q01DX009 (ip), vehicle: saline 96 % of control

O=C(O)c1ccc(N=C=S)cc1O
inactive: [4] 97 % of control | [5] 107 % of control | [6] 97 % of control

COc1ccccc1CCCOC(=O)c1ccc([N+](=O)[O-])cc1
inactive: dose: 100.0 mg/kg/injection, schedule: Q01DX001 (ip), vehicle: saline with Tween-80 100 % of control | dose: 200.0 mg/kg/injection, schedule: Q01DX001 (ip), vehicle: saline with Tween-80 95 % of control | dose: 400.0 mg/kg/injection, schedule: Q01DX001 (ip), vehicle: saline with Tween-80 89 % of control

NNC(=O)CCC(=O)NN
inactive: dose: 100.0 mg/kg/injection, schedule: Q01DX009 (ip), vehicle: saline with Tween-80 100 % of control | dose: 200.0 mg/kg/injection, schedule: Q01DX009 (ip), vehicle: saline with Tween-80 99 % of control | dose: 400.0 mg/kg/injection, schedule: Q01DX009 (ip), vehicle: saline with Tween-80 100 % of control

CCN(CC)CC(=O)NCC(CCN(C)C)(c1cccc2ccccc12)C(C)C (stereo not given)
inactive: dose: 100.0 mg/kg/injection, schedule: Q04DX003 (ip), vehicle: saline 102 % of control | dose: 200.0 mg/kg/injection, schedule: Q04DX003 (ip), vehicle: saline 93 % of control

Cc1cnc(N(C)CC(=O)O)nc1-c1ccccc1O
inactive: [7] 96 % of control | [8] 89 % of control

COc1cccc(NC(=O)c2ccc(C(=O)Nc3cccc(OC)c3)cc2)c1
inactive: [9] 98 % of control | [1] 96 % of control | [2] 91 % of control

Cc1cc(=O)oc2c(OC(=O)N(CCCl)CCCl)c(OC(=O)N(CCCl)CCCl)ccc12
inactive: dose: 25.0 mg/kg/injection, schedule: Q04DX002 (ip), vehicle: Klucel (hydroxypropylcellulose) (HPC) 90 % of control | dose: 50.0 mg/kg/injection, schedule: Q04DX002 (ip), vehicle: Klucel (hydroxypropylcellulose) (HPC) 94 % of control | [7] 97 % of control | [8] 90 % of control | [10] 103 % of control

O=C(NCc1cccc2ccccc12)Nc1ccccc1Cl
inactive: [7] 100 % of control | [8] 104 % of control | [10] 96 % of control

CN(C)CN1C(=O)c2ccccc2C1=O
inactive: [11] 103 % of control | [12] 100 % of control | dose: 400.0 mg/kg/injection, schedule: Q01DX009 (ip), vehicle: Klucel (hydroxypropylcellulose) (HPC) 104 % of control

COc1cc2ccc3c(c2cc1OC)C=NCC3
inactive: dose: 1.56 mg/kg/injection, schedule: Q04DX003 (ip), vehicle: saline 107 % of control | dose: 3.13 mg/kg/injection, schedule: Q01DX009 (ip), vehicle: saline 109 % of control | dose: 3.13 mg/kg/injection, schedule: Q04DX003 (ip), vehicle: saline 102 % of control | dose: 6.25 mg/kg/injection, schedule: Q01DX009 (ip), vehicle: saline 105 % of control | dose: 6.25 mg/kg/injection, schedule: Q04DX003 (ip), vehicle: saline 97 % of control | dose: 12.5 mg/kg/injection, schedule: Q04DX003 (ip), vehicle: saline 87 % of control

CCN(CC)CC
inactive: [7] 98 % of control | [8] 109 % of control | [10] 103 % of control

C/C(=N\N=C(/C)c1ccc(C)cc1C)c1ccc(C)cc1C
inactive: dose: 100.0 mg/kg/injection, schedule: Q04DX002 (ip), vehicle: saline with Tween-80 98 % of control | dose: 200.0 mg/kg/injection, schedule: Q04DX002 (ip), vehicle: saline with Tween-80 95 % of control | dose: 400.0 mg/kg/injection, schedule: Q04DX002 (ip), vehicle: saline with Tween-80 103 % of control

CC1=CC(=O)C=CC1(C)C(Cl)(Cl)Cl (stereo not given)
inactive: [11] 95 % of control | dose: 100.0 mg/kg/injection, schedule: Q04DX003 (ip), vehicle: other 100 % of control | [12] 91 % of control | dose: 200.0 mg/kg/injection, schedule: Q04DX003 (ip), vehicle: other 94 % of control | dose: 400.0 mg/kg/injection, schedule: Q04DX003 (ip), vehicle: other 101 % of control

O=C(O)C1CCC(CC2CCC2)CC1 (stereo not given)
inactive: [4] 95 % of control | [13] 98 % of control | [5] 100 % of control | [14] 98 % of control | [6] 92 % of control | dose: 400.0 mg/kg/injection, schedule: Q04DX003 (ip), vehicle: Klucel (hydroxypropylcellulose) (HPC) 95 % of control

NC1CC2(CCC1=O)c1ccccc1-c1ccccc12 (stereo not given)
inactive: [1] 101 % of control | [3] 104 % of control

CCOC(=O)C1CN(C(C)C)C(=O)C1=O (stereo not given)
inactive: [9] 100 % of control | [1] 102 % of control | [2] 96 % of control | [3] 114 % of control

CCCCCCCCCCCCCCCC(=O)NCCO
inactive: dose: 50.0 mg/kg/injection, schedule: Q01DX009 (ip), vehicle: saline sonified 96 % of control | dose: 50.0 mg/kg/injection, schedule: Q04DX003 (ip), vehicle: Klucel (hydroxypropylcellulose) (HPC) 91 % of control | dose: 100.0 mg/kg/injection, schedule: Q01DX009 (ip), vehicle: saline sonified 91 % of control | [13] 106 % of control | dose: 200.0 mg/kg/injection, schedule: Q01DX009 (ip), vehicle: saline sonified 96 % of control | [14] 96 % of control and 89 % of control
